Results on two compounds are retold here after patent US7507739B2, “6-[(substituted)phenyl]triazolopyrimidines as anticancer agents” (Wyeth, priority 2003, dated 2009).

Molecules are shown by their SMILES.

The subject of one experiment is microtubules. In words: Competitive binding test, [3H]paclitaxel. Also noted: species or system bovine. The conditions noted are these: [3H]paclitaxel 2.1 μM, competitor 20 μM (5 μM for unlabeled paclitaxel). As to the method: (§1) Medium is RPMI-1640 with L-glutamine, supplemented with 10% heat-inactivated fetal calf serum, 100 units/ml penicillin, and 100 μg/ml streptomycin (Gibco, Grand Island, N.Y.). Microtubule-associated protein (MAP)-rich tubulin, containing about 70% tubulin and 30% MAPs (#ML113), and highly purified tubulin (>99% pure, #TL238), both from bovine brain, are obtained from Cytoskeleton, Inc., Denver, Colo. PEM buffer (80 mM piperazine-N,N′-bis[2-ethanesulfonic acid], pH 6.9, 1 mM ethylene glycol-bis(β-aminoethyl ether)-N,N,N′,N′-tetraacetic acid, 1 mM magnesium chloride) and guanosine 5′-triphosphate (GTP) are also obtained from Cytoskeleton. [3H]paclitaxel, specific activity 14.7 Ci/mmol, is purchased from Moravek Biochemicals (Brea, Calif.). [^3H]vinblastine, specific activity 9.60 Ci/mmol and MicroSpin G-50 columns are obtained from Amersham Biosciences (Piscataway, N.J.). […] Other reagents are obtained from Sigma (St. Louis, Mo.).
(§2) The binding of examples of this invention to highly purified tubulin is studied by competitive inhibition methods. […] To study possible competition at the taxane site, on the other hand, polymerized tubulin (microtubules) is used because paclitaxel binds preferentially to microtubules.
For competition with [^3H]paclitaxel, highly purified tubulin is dissolved in PEM buffer containing 0.75 M glutamate and 25 μM dideoxy-GTP; final protein concentration is 0.25 to 0.35 mg/mL (2.5 to 3.5 μM). These conditions foster the rapid formation of short, stable microtubule polymers (Hamel, E., del Campo, A. A., and Lin, C. M. Stability of tubulin polymers formed with dideoxyguanosine nucleotides in the presence and absence of microtubule-associated proteins. J. Biol. Chem., 259: 2501-2508, 1984). This solution is incubated for 30 min at 37° to allow microtubules to form. Then [^3H]paclitaxel (final concentration of 2.1 μM, 1.2 Ci/mmol) and competitor (final concentration of 20 μM, except 5 μM for unlabeled paclitaxel) are added to aliquots of the polymerized tubulin solution and incubation at 37° is continued for another 30 min. […] The reactions are then centrifuged at top speed in an Eppendorf 5415C microfuge for 20 min at room temperature in order to pellet the microtubule protein. Triplicate aliquots of each supernatant are mixed with scintillation fluid and counted in a liquid scintillation spectrometer. From the amount of radioactivity in the supernatants and the measured total starting radioactivity, the amount of [^3H]paclitaxel bound to pelleted microtubule protein is calculated. The ability of each competitor to inhibit radioligand binding to pelleted protein is expressed as a percent of controls without any competitor.

A further experiment deals with pure tubulin. Kind of experiment: Tubulin polymerization test with pure tubulin without GTP. Type of experiment: biochemical, bovine. The conditions noted are these: no GTP. The method, then: as §1
Two variations of this procedure are done, one using MAP-rich tubulin and one using pure tubulin.
The procedure with pure tubulin is similar except for the following changes. […] The supernatant after centrifugation is dispensed to a 96-well plate already containing compounds. Each compound is tested in duplicate at six serial 3-fold dilutions starting at 24.3 μM. The plate reader is thermostated at 35°.

The next experiment concerns MAP-rich tubulin. In words: Tubulin polymerization test with MAP-rich tubulin. Type of experiment: biochemical, bovine. To be noted: 0.3 μM compound, 20 min, fold enhancement over control. The method, boiled down:
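Bovine brain MAP-rich tubulin (1.3 mg/mL) in PEM buffer pH 6.9 with 1 mM GTP, compounds at 0.3 μM final (0.3% DMSO), 24° for 60 min. Turbidity read at 340 nm each minute, baseline-subtracted; mean A340 at 20 min divided by solvent control gives fold enhancement.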

The test system of another experiment is COLO 205 cells. In words: MTS cytotoxicity test with COLO 205 cells. Type of experiment: cell-based, human. The conditions noted are these: 3 days. In short, it runs like this: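 COLO 205 human colon carcinoma cells, 1000 per well, exposed 3 days at 37° C to nine 2-fold dilutions, typical final top concentration 5 μM. MTS absorbance normalized to time-0 plate; IC50 is concentration giving colour yield midway between untreated and fully killed controls.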

Experiment [1] has as its system tubulin heterodimer. Kind of experiment: Competitive binding test, [3H]colchicine. The conditions noted are these: [3H]colchicine 50 nM. Also noted: species or system bovine. As to the method:
as §1, §2
(§3) Highly purified tubulin is dissolved in PEM buffer without GTP and used at a final concentration of 1.0 to 1.3 mg/ml (10 to 13 μM). […] These solutions are incubated at 24° for 1 hr and then applied to MicroSpin G-50 columns which are centrifuged for 2 min at 3000 rpm in an Eppendorf 5415C microfuge. An aliquot of each column effluent (containing tubulin and bound radioligand) is mixed with scintillation fluid and counted in a liquid scintillation spectrometer. […] The ability of the competitor to inhibit the binding of the radioligand is expressed as a percentage of control binding in the absence of any competitor.

In experiment [2] the test system is tubulin heterodimer. In words: Competitive binding test, [3H]vinblastine. The conditions noted are these: [3H]vinblastine 100 nM. Also noted: species or system bovine. As to the method: as §1, §2, §3
The next experiment relates to HL-60 cells. In words: MTS cytotoxicity test with HL-60 cells. The experiment is classed as cell-based. To be noted: Homo sapiens; HL-60 cells, MTS; read-out: IC50 HL-60. From the text: (§4) Human cancer cell lines, unless otherwise noted, are obtained from the American Type Culture Collection (Rockville, Md.). The following drug-sensitive parental cell lines, and their derived drug-resistant counterparts, are obtained from the originators as listed: (a) S1 (parental line from a subclone of human colon carcinoma line LS174T) and derived S1-M1-3.2 (herein called S1-M1) which expresses the MXR drug transporter protein, are provided by Dr. L. Greenberger, Wyeth Research (Rabindran, S. K., He, H., Singh, M., Brown, E., Collins, K. I., Annable, T., and Greenberger, L. M. Reversal of a novel multidrug resistance mechanism in human colon carcinoma cells by fumitremorgin C. Cancer Res., 58:5850-5858,1998); (b) parental HL-60 human promyelocytic leukemia line and derived HL-60/ADR, which expresses the MRP1 drug transporter protein, are provided by Dr. M. Center, University of Kansas (McGrath, T., and Center, M. S. Adriamycin resistance in HL60 cells in the absence of detectable P-glycoprotein. Biochem. Biophys. […] J. Biol. Chem., 261: 7762-7770,1986) via Dr. L. Greenberger, Wyeth Research.
(§5) The assay, which is sold in kit form by Promega (Madison, Wis.; CellTiter 96 AQueous Non-Radioactive Cell Proliferation Assay), is based on the conversion by viable cells, but not by dead cells, of the tetrazolium salt, MTS (3-(4,5-dimethylthiazol-2-yl)-5-(3-carboxymethoxyphenyl)-2-(4-sulphophenyl)-2H-tetrazolium, inner salt), into a water-soluble colored formazan which is detected by spectrophotometry. Compounds are tested at nine concentrations, in order to determine IC50 values. For the test procedure, cells are harvested by trypsinization (or, in the case of non-adherent cells, by simple resuspension), washed, counted and distributed to wells of 96-well flat-bottom microtiter plates at 1000 cells per well in 200 μL of medium. In addition, one row of wells on a separate plate received cells as above (“time 0” plate). All plates are incubated at 37° in humidified 5% CO2 in air for about 24 hr.
(§6) On day 2, compounds for test are diluted and added to wells. Compounds are dissolved in DMSO at 10 mg/mL. For each compound, nine serial 2-fold dilutions are prepared in DMSO. Ten μL of each dilution in DMSO is transferred to 100 μL of medium, mixed well, and then 5 μL of this dilution is transferred in quadruplicate to wells containing cells. […] Plates are returned to the incubator for three days. At the time of drug addition to the experimental plates, the MTS assay is run on the “time 0” plate. This produced the “time 0 MTS value” which is related to the number of viable cells per well at the time of drug addition.
(§7) After three days of culture with test compounds (day 5 overall), the MTS assay is done on all wells of the experimental plates. The absorbance values of the quadruplicate sample wells are averaged and divided by the average of the “time 0” values. […] The nine values for each compound are plotted against concentration, and the concentration that produced a relative color yield half way between the maximum and minimum is taken as the IC50 value.
(§8) HL-60/ADR cells overexpress the multidrug resistance protein MRP1 which mediates resistance to some chemotherapeutics (Gottesman, M. M., Fojo, T., and Bates, S. E. Multidrug resistance in cancer: role of ATP-dependent transporters. Nature Rev. Cancer, 2: 48-58, 2002). The IC50 values of representative examples of this invention, as well as reference compounds, on HL-60/ADR are compared to values on the sensitive parental HL-60 line.
A general note: Tetrazolium dyes change colour on reduction, which living cells bring about.

A further experiment deals with HL-60/ADR cells. In words: MTS cytotoxicity test with HL-60/ADR cells (MRP1). The experiment is classed as cell-based, human. To be noted: IC50 on HL-60/ADR cells/IC50 on HL-60 cells.
Description: as §4, §5, §6, §7, §8

For another experiment, the system named is KB-V1 cells. Kind of experiment: MTS cytotoxicity test with KB-V1 cells (very high P-glycoprotein). The experiment is classed as cell-based, human. The conditions noted are these: IC50 on KB VI cells/IC50 on KB cells.
Description: as §4, §5, §6, §7
(§9) The KB lines express different amounts of the P-glycoprotein (MDR1) membrane pump which produces resistance to the action of many cytotoxic compounds, including paclitaxel and vincristine. The parental KB line expresses no P-glycoprotein, KB-8-5 expresses moderate levels of the protein, and KB-V1 expresses very high levels.

A further experiment deals with S1 cells. Kind of experiment: MTS cytotoxicity test with S1 cells. The conditions noted are these: Homo sapiens. Type of experiment: cell-based.
Description: as §4, §5, §6, §7
(§10) S1-M1 cells overexpress the MXR transporter which mediates resistance to some chemotherapeutics (Gottesman, M. M., Fojo, T., and Bates, S. E. Miltidrug resistance in cancer: role of ATP-dependent transporters. Nature Rev. Cancer, 2: 48-58, 2002). The IC50 values of representative examples of this invention, as well as reference compounds, on S1-M1 are compared to values on the sensitive parental S1 line.

For another experiment, the system named is KB-8-5 cells. Kind of experiment: MTS cytotoxicity test with KB-8-5 cells (moderate P-glycoprotein). Type of experiment: cell-based, human.
Description: as §4, §5, §6, §7, §9

For the next experiment, the system named is S1-M1 cells. In words: MTS cytotoxicity test with S1-M1 cells (MXR). The experiment is classed as cell-based, human. The conditions noted are these: for Ratio: IC50 on S1-M1 cells/IC50 on S1 cells.
Description: as §4, §5, §6, §7, §10

A further experiment deals with KB cells. In words: MTS cytotoxicity test with KB cells. Type of experiment: cell-based. The conditions noted are these: Homo sapiens; KB cells, MTS; read-out: IC50 KB.
Description: as §4, §5, §6, §7, §9

Usually IC50 stands for the concentration needed to halve the response being measured. `C[C@H](Nc1c(-c2c(F)cc(OCCCN3CCOCC3)cc2F)c(Cl)nc2ncnn12)C(F)(F)F.Cl` [Example 11a, 5-Chloro-6-[2,6-difluoro-4-(3-morpholin-4-ylpropoxy)phenyl]-N-[(1S)-2,2,2-trifluoro-1-methylethyl][1,2,4]triazolo[1,5-a]pyrimidin-7-amine Hydrogen chloride]: the “[3H]Paclitaxel binding, percent of control without competitor, Mean” value with microtubules amounted to 107%. For the same compound, the “absorbance increase, polymerization of pure tubulin” value (shortened to “absorbance increase, polymerization”) with pure tubulin (2.7 μM) is “no effect”. In the experiment on pure tubulin (8.1 μM), the “absorbance increase, polymerization” value is “lower and less rapid increase”. In the experiment on pure tubulin (24.3 μM), the “A340 at 0 min” value came out at 0, the “A340 at 5 min” value was found to be 0.24, the “A340 at 10 min” value is given as 0.24 and the “A340 at 15 min” value came to 0.23. For the same compound, the “A340 at 20 min” value with pure tubulin (24.3 μM) came out at 0.22. Besides, the “absorbance increase, polymerization” value in the experiment on pure tubulin (24.3 μM, first 5 min) is recorded as “rapid increase in absorbance”. Moreover, the “A340 Compound/A340 Control” value in the experiment with MAP-rich tubulin turned out to be 6.8. The compound further had an IC50 in the experiment with COLO 205 cells of 51 nM. Moreover, the “[3H]Colchicine binding, percent of control without competitor, Mean” value in the experiment with tubulin heterodimer [1] is 121%. Moreover, the “[3H]Vinblastine binding, percent of control without competitor, Mean” value with tubulin heterodimer [2] came out at 12%.

Take `O=C1c2c(O)ccc(O)c2C(=O)c2c(NCCNCCO)ccc(NCCNCCO)c21` [Mitoxantrone, reference compound]: the 50% inhibitory concentration (IC50) in the experiment on HL-60 cells is 9.5 nM; with S1 cells, 10 nM; in the experiment on KB-8-5 cells (Homo sapiens, KB-8-5 cells, MTS, read-out: IC50 KB 8.5) it was 27 nM; in the experiment on S1-M1 cells (Homo sapiens, S1-M1 cells, MTS, read-out: IC50 S1-M1), over 3000 nM; with KB cells, 25 nM. The Ratio is listed as 17 in the experiment on HL-60/ADR cells, over 300 in the experiment on S1-M1 cells and over 300 in the experiment with S1-M1 cells (listed as mitoxantrone). Besides, the “Ratio VI/KB” value in the experiment on KB-V1 cells amounted to 77. Besides, the “Ratio 8.5/KB” value in the experiment with KB-8-5 cells (IC50 on KB 8.5 cells/IC50 on KB cells) came out at 1.1.
